Source: PMC10752957, “GABAA receptors as plausible molecular targets and mediators for taurine and homotaurine actions” (Frontiers in Pharmacology, 2023)
Values joined by “and” are separate entries in the source; they are usually repeats but may differ in a detail not shown here. Equal entries are not always repeated. Where two headings read alike, the source gives them in different places.

Experiments:
[1] = system: native GABAARs in cerebellar granule cells; assay: Whole-cell patch clamp of cerebellar granule cells in mouse brain slices, cumulative concentration-response; assay type: cell-based; details: for Concentration at which currents reach saturation / Threshold concentration for eliciting currents: cumulative application; for Hill slope of the concentration-response curve: normalized concentration-response curves; for Hill slope of the concentration-response curve / Maximal current response (Imax ± SEM) / EC50: n = 7; for Maximal current response (Imax ± SEM): 1 mM HT, 3 mM taurine, 3 mM GABA; for EC50: read-out: EC50 for evoking GABAAR-mediated current, CGCs held at −70 mV, 10 μM DNQX, 0.3 μM TTX, room temperature, mean ± SEM
[2] = system: rat brain GABAARs; parameters: method as in Bureau and Olsen, 1991; details: ref Bureau and Olsen, 1991, read-out: Average IC50 for displacing [3H]muscimol; cited from earlier work
[3] = system: GABAARs in thalamocortical relay neurons; parameters: method as in Jia et al., 2008; details: ref Jia et al., 2008; cited from earlier work
[4] = target: mouse brain native GABAARs; assay: 5 nM [3H]muscimol displacement from mouse brain (sans cerebellum) membranes; assay type: binding; details: n = 9; for IC50: 5 nM [3H]muscimol, mean ± SEM, read-out: IC50 for displacing [3H]muscimol binding
Protocol: Adult mouse brain (sans cerebellum) membrane pellets were prepared essentially as described by [Uusi-Oukari et al. (2014)], suspended in 50 mM Tris-HCl, pH 7.4 (assay buffer) and frozen at −80°C. For binding experiments, the suspension was thawed and washed by centrifugation/resuspension in assay buffer. 5 nM [^3H]muscimol binding was measured in assay buffer at room temperature (RT, ∼22°C) in a total volume of 300 µL. […] After 20 min incubation at room temperature the membranes were collected with a Brandel Cell Harvester (Model M-24, Gaithersburg, MD, United States) onto Whatman GF/B filters (Whatman International Ltd., Maidstone, United Kingdom). The samples were rinsed twice with 4–5 mL of ice-cold assay buffer. Filtration and rinsing steps took a total time of ∼15 s. Air-dried filters were immersed in 3 mL of Optiphase HiSafe 3 scintillation fluid (Wallac, Turku, Finland) and radioactivity determined in a Hidex 600 SL liquid scintillation counter (Hidex, Turku, Finland). [^3H]Muscimol displacement and electrophysiology data were analyzed with GraphPad Prism 7 software (GraphPad, San Diego, CA, United States). Data are presented as mean ± standard error of mean (SEM). Statistical data analysis was performed with a Student’s t-test (two-tailed distribution, unequal variance) in Microsoft Excel.

[5] = system: mice; parameters: method as in Singh et al., 2023; details: taurine 1 g/kg per day, ref Singh et al., 2023; cited from earlier work
[6] = system: strychnine-sensitive glycine receptors; parameters: method as in Jia et al., 2008; details: ref Jia et al., 2008; cited from earlier work
[7] = system: chick embryonic neuronal cultures; parameters: method as in Louzada et al., 2004; details: 1 mM taurine; ref Louzada et al., 2004; cited from earlier work
[8] = system: primary cultured neurons; parameters: method as in Gervais et al., 2007; details: 100 μM HT; ref Gervais et al., 2007; cited from earlier work
[9] = system: GABAAR; parameters: method as in Allan and Harris, 1986; details: ref Allan and Harris, 1986; cited from earlier work
[10] = parameters: method as in Hey et al., 2018; details: ref Hey et al., 2018; cited from earlier work
[11] = system: ρ1-GABAARs; parameters: method as in Ochoa-de la Paz et al., 2018; details: expressed in oocytes, ref Ochoa-de la Paz et al., 2018, cited from earlier work
[12] = system: rat; parameters: method as in Olive et al., 2002; details: fold lower doses than acetyl-HT, rat models; ref Olive et al., 2002; cited from earlier work

Row | Compound | Concentration at which currents reach saturation [1] | Threshold concentration for eliciting currents [1] | Hill slope of the concentration-response curve [1] | IC50 ([4]; room temperature) | Hill slope of the [3H]muscimol displacement curve [4] | Maximal current response (Imax ± SEM) [1] | EC50 [1] | also measured
1 | NCCCC(=O)O [GABA] | ~1 mM | 300 nM | 0.92 ± 0.13 |  |  |  |  | 
2 | NCCS(=O)(=O)O [taurine, Taurine] | around 3 mM | around 10 μM | 0.87 ± 0.06 | 125000 nM | −0.86 ± 0.04 | −67 ± 7 pA | 116000 nM | IC50 [2]: ~50000 nM; Concentration that activates GABAARs [3]: ≥ 10 µM; Increase in life span [5]: 10%; Concentration that also activates strychnine-sensitive glycine receptors [6]: > 100 µM; Effect on neurotoxicity of 44 μM Aβ42 and glutamate receptor agonists [7]: prevented
3 | COc1ccc(-c2ccc(=N)n(CCCC(=O)O)n2)cc1 [Gabazine] |  |  |  |  |  |  |  | Block of currents evoked by 1 mM HT, 3 mM taurine and 3 mM GABA ([1]; applied together with saturating agonist): completely blocks
4 | NCCCS(=O)(=O)O [HT, Homotaurine] | around 10 µM | ~100 nM | 0.79 ± 0.05 | 160 nM and 158 nM and ~200 nM | −0.79 ± 0.04 | −75 ± 7 pA | 400 nM and 425 nM and ~400 nM | Effect on neuronal death induced by 5 μM Aβ42 [8]: inhibited; Concentration that stimulates GABAAR-mediated chloride flux [9]: ≥ 100 µM; IC50 [4]: 158 ± 10 nM; IC50 ([4]; room temperature, listed as Homotaurine): 158 ± 10 nM; Estimated average total brain 14C-HT [10]: 0.55 µM; Type of agonism on recombinant ρ1-GABAARs [11]: partial agonist; EC50 ([11]; read-out: EC50 on recombinant ρ1-GABAARs): ~300000 nM; Potency relative to GABA ([1]; times more potent than GABA): about 10 times; Sensitivity of native CGC GABAARs relative to recombinant ρ1-GABAARs ([1]; times more sensitive to HT): about 1000 times; Dose that reduces alcohol intake, relative to acetyl-HT [12]: ~10 fold
